Data as given in ChEMBL document CHEMBL1201862, “PubChem BioAssay data set” (2004).
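Protocol summary: plate cells (96-well), add compound at 5 concentrations, incubate 48 h, interpolate endpoints linearly. GI50: concentration for 50% inhibition of growth.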 Activity calls are given as the source filed them. Cut-off read from the data, not from the text of the source: active = GI50 up to about 1.1 µM and inactive = higher.

How the values were obtained:
Test in all cases: NCI-60 cell line screen, 48 h
HCT-15 = system: HCT-15
UO-31 = system: UO-31
MOLT-4 = system: MOLT-4
SNB-75 = system: SNB-75
HOP-92 = system: HOP-92
SW-620 = system: SW-620
M14 = system: M14
SK-MEL-28 = system: SK-MEL-28
HCC 2998 = system: HCC 2998
UACC-257 = system: UACC-257
SF-268 = system: SF-268
HL-60 = system: HL-60
RXF 393 = system: RXF 393
786-0 = system: 786-0
M19-MEL = system: M19-MEL
OVCAR-3 = system: OVCAR-3
A549 = system: A549
OVCAR-8 = system: OVCAR-8
NCI-H226 = system: NCI-H226

| SMILES | GI50 (HCT-15) | GI50 (UO-31) | GI50 (MOLT-4) | GI50 (SNB-75) | GI50 (HOP-92) | GI50 (SW-620) | GI50 (M14) | GI50 (SK-MEL-28) | GI50 (HCC 2998) | GI50 (UACC-257) | GI50 (SF-268) | GI50 (HL-60) | GI50 (RXF 393) | GI50 (786-0) | GI50 (M19-MEL) | GI50 (OVCAR-3) | GI50 (A549) | GI50 (OVCAR-8) | GI50 (NCI-H226) |
| --- | --- | --- | --- | --- | --- | --- | --- | --- | --- | --- | --- | --- | --- | --- | --- | --- | --- | --- | --- |
| COc1cccc(NC(=O)CC(=O)N2N=C(n3ccc4ccccc43)CC2c2ccccc2)c1 (stereo unspecified) | > 100 µM | > 100 µM (inactive) | > 100 µM (inactive) | 71.3 µM (inactive) | 55.6 µM (inactive) | > 100 µM (inactive) | > 100 µM (inactive) | > 100 µM (inactive) | > 100 µM (inactive) | > 100 µM (inactive) | > 100 µM (inactive) | > 100 µM (inactive) | > 100 µM (inactive) | > 100 µM (inactive) | > 100 µM (inactive) | > 100 µM (inactive) | > 100 µM (inactive) | > 100 µM (inactive) |  |
| C=C(COC(C)=O)CC(/C=C(\C)CC/C=C(\C)CO)OC(C)=O (stereo unspecified) | > 100 µM | > 100 µM (inactive) | 35.1 µM (inactive) | 59 µM (inactive) | 54.8 µM (inactive) | > 100 µM (inactive) | > 100 µM (inactive) | > 100 µM (inactive) | > 100 µM (inactive) |  | > 100 µM (inactive) | > 100 µM (inactive) | > 100 µM (inactive) | > 100 µM (inactive) | > 100 µM (inactive) | > 100 µM (inactive) | > 100 µM (inactive) | > 100 µM (inactive) | > 100 µM (inactive) |
| O=C(O)C1=NN=C(C(=O)O)NN1 | > 100 µM | > 100 µM (inactive) | > 100 µM (inactive) | > 100 µM (inactive) | > 100 µM (inactive) | 38.6 µM (inactive) | > 100 µM (inactive) | > 100 µM (inactive) |  | > 100 µM (inactive) | > 100 µM (inactive) | > 100 µM (inactive) | > 100 µM (inactive) | > 100 µM (inactive) | > 100 µM (inactive) | > 100 µM (inactive) | > 100 µM (inactive) | > 100 µM (inactive) | > 100 µM (inactive) |
| O=C(/C=C/c1ccc([N+](=O)[O-])o1)N1CCN(Cc2ccccc2)CC1 | 4.41 µM | 17.3 µM (inactive) | 11.6 µM (inactive) | 14.7 µM (inactive) | 14.1 µM (inactive) | 7.08 µM (inactive) | 4.66 µM (inactive) | 4.89 µM (inactive) | 15.7 µM (inactive) | 7.89 µM (inactive) | 14 µM (inactive) | 2.56 µM (inactive) | 11.8 µM (inactive) | 12.7 µM (inactive) | 6.43 µM (inactive) | 17.7 µM (inactive) | 16.9 µM (inactive) | 12.2 µM (inactive) |  |
| CCC(=O)OC1CCn2c1nc1c2C(=O)C(C)=C(NC(C)=O)C1=N (stereo unspecified) | 2.25 µM | 2.2 µM (inactive) | 1.54 µM (inactive) | 2.48 µM (inactive) | 2.21 µM (inactive) | 0.916 µM (active) |  | 2.05 µM (inactive) | 3.4 µM (inactive) | 1.24 µM (inactive) | 2.54 µM (inactive) | 0.774 µM (active) |  | 2.43 µM (inactive) | 0.186 µM (active) | 0.453 µM (active) | 3.02 µM (inactive) | 1.04 µM (active) | 1.93 µM (inactive) |
| Cc1cccc(C)c1NC(=O)CCC/C(CC(=O)c1ccc(F)cc1)=N\NC(=O)C(=O)NN | > 100 µM | > 100 µM (inactive) | > 100 µM (inactive) | > 100 µM (inactive) |  | > 100 µM (inactive) | > 100 µM (inactive) | > 100 µM (inactive) | > 100 µM (inactive) | > 100 µM (inactive) | > 100 µM (inactive) | > 100 µM (inactive) | 21.9 µM (inactive) | > 100 µM (inactive) | > 100 µM (inactive) | > 100 µM (inactive) | > 100 µM (inactive) | > 100 µM (inactive) | > 100 µM (inactive) |
| COC(=O)c1c2cccccc-2c(Cc2c3cccccc-3c(C(=O)OC)c2O)c1O | > 100 µM | > 100 µM (inactive) | > 100 µM (inactive) | 86.5 µM (inactive) | > 100 µM (inactive) | > 100 µM (inactive) | > 100 µM (inactive) | > 100 µM (inactive) | > 100 µM (inactive) | > 100 µM (inactive) | > 100 µM (inactive) | > 100 µM (inactive) |  | > 100 µM (inactive) | > 100 µM (inactive) | > 100 µM (inactive) | > 100 µM (inactive) | > 100 µM (inactive) | > 100 µM (inactive) |
| O=C(Cn1ccnc1[N+](=O)[O-])c1ccccc1 | > 100 µM | > 100 µM (inactive) | > 100 µM (inactive) | > 100 µM (inactive) | > 100 µM (inactive) | > 100 µM (inactive) | > 100 µM (inactive) | > 100 µM (inactive) | > 100 µM (inactive) | > 100 µM (inactive) | > 100 µM (inactive) | > 100 µM (inactive) | > 100 µM (inactive) | > 100 µM (inactive) | > 100 µM (inactive) | > 100 µM (inactive) | > 100 µM (inactive) | > 100 µM (inactive) | > 100 µM (inactive) |
| CCOC(=O)/C(C#N)=C(O)/C(=C\c1ccc(Br)cc1)NC(=O)c1ccccc1 | 37.4 µM | > 100 µM (inactive) | > 100 µM (inactive) | > 100 µM (inactive) | > 100 µM (inactive) | 19.2 µM (inactive) | > 100 µM (inactive) | > 100 µM (inactive) | > 100 µM (inactive) | > 100 µM (inactive) | > 100 µM (inactive) | > 100 µM (inactive) |  | > 100 µM (inactive) | > 100 µM (inactive) | > 100 µM (inactive) | > 100 µM (inactive) | > 100 µM (inactive) | 30.4 µM (inactive) |
| O=C1CC[C@@H](S(=O)(=O)c2ccccc2)[C@H](/C=C/c2ccccc2)O1 | > 100 µM | > 100 µM (inactive) | > 100 µM (inactive) | > 100 µM (inactive) |  | > 100 µM (inactive) | > 100 µM (inactive) | > 100 µM (inactive) | > 100 µM (inactive) | > 100 µM (inactive) |  | > 100 µM (inactive) | > 100 µM (inactive) | > 100 µM (inactive) | > 100 µM (inactive) | > 100 µM (inactive) | > 100 µM (inactive) | > 100 µM (inactive) | > 100 µM (inactive) |
| CCN(CC)C(=S)SCC(=O)Nc1nc2c(s1)CCCC2 | 24.6 µM | 36.7 µM (inactive) | 41.4 µM (inactive) | 72.6 µM (inactive) | 68.2 µM (inactive) | > 100 µM (inactive) | > 100 µM (inactive) | > 100 µM (inactive) | > 100 µM (inactive) | 36.9 µM (inactive) | > 100 µM (inactive) | 19.4 µM (inactive) |  | 60.8 µM (inactive) | 52.7 µM (inactive) |  | > 100 µM (inactive) | > 100 µM (inactive) | > 100 µM (inactive) |
